Experimental data: patent EP2226323A1, “New tetrahydropyrazolo[3,4-c]isoquinolin-5-amine derivatives” (Almirall, S.A., priority 2009, dated 2010)

Molecular target: recombinant PDE4 enzyme
Test: PDE4 assay: [3H] cAMP Scintillation Proximity Assay (SPA) of phosphodiesterase activity
Assay type: biochemical
Details: yeast extract of recombinant PDE4 enzyme; 30 nM [3H] cAMP; 1 hr at room temperature; pH 7.5
Procedure: Measurement of Phosphodiesterase Activity was done using a [3H] cAMP Scintillation Proximity Assay (SPA) (GE Healthcare). Compounds to be tested were dissolved in DMSO at a stock concentration of 1 mM and serial dilutions were prepared in 50% DMSO to determine IC50s. The reactions were conducted in 96-well plates (Corning, Ref.3604) at room temperature, in 0.1 ml of reaction buffer containing (final concentrations): 50 mM Tris-HCl, pH 7.5, 8.3 mM MgCl2, 1.7 mM EGTA, 30 nM [3H] cAMP (approximately 150000 dpm/well) with or without the inhibitors. The reaction was initiated by adding yeast extract of recombinant PDE4 enzyme. Plates were shaken for 1 hr at room temperature and the incubation was terminated by adding 50 µl (0.5 mg /well) of SPA yttrium silicate beads (RPNQ 0150; GE Healthcare) in the presence of zinc sulfate. Plates were stored overnight in the dark and read on a TRILUX microtiter plate reader (Perkin Elmer).

| IC50 [nM] | Compound |
| --- | --- |
| 6.14 | CC1(C)CCc2c(Nc3c(Cl)cncc3Cl)nc3c(c(O)nn3CCCN3CCOCC3)c2C1 [Example 15, 5-(3,5-Dichloropyridin-4-ylamino)-8,8-dimethyl-3-(3-morpholinopropyl)-6,7,8,9-tetrahydro-3H-pyrazolo[3,4-c]isoquinolin-1-ol] |
| 2.1 | CC1(C)CCc2c(Nc3c(Cl)cncc3Cl)nc3c(c(O)nn3CCCc3cccc(C(N)=O)c3)c2C1 [Example 17, 3-(3-(5-(3,5-Dichloropyridin-4-ylamino)-1-hydroxy-8,8-dimethyl-6,7,8,9-tetrahydro-3H-pyrazolo[3,4-c]isoquinolin-3-yl)propyl)benzamide] |
| 2.35 | CC1(C)CCc2c(Nc3c(Cl)cncc3Cl)nc3c(c(O)nn3Cc3cccc(C#N)c3)c2C1 [Example 13, 3-((5-(3,5-Dichloropyridin-4-ylamino)-1-hydroxy-8,8-dimethyl-6,7,8,9-tetrahydro-3H-pyrazolo[3,4-c]isoquinolin-3-yl)methyl)benzonitrile] |
| 2 | Methyl 3-((5-(3,5-dichloropyridin-4-ylamino)-1-hydroxy-8,8-dimethyl-6,7,8,9-tetrahydro-3H-pyrazolo[3,4-c]isoquinolin-3-yl)methyl)benzoate [Example 6] |
| 17.1 | Cn1nc(O)c2c3c(c(Nc4c(Cl)cncc4Cl)nc21)CCC(C)(C)C3 [Example 5, 5-(3,5-Dichloropyridin-4-ylamino)-3,8,8-trimethyl-6,7,8,9-tetrahydro-3H-pyrazolo[3,4-c]isoquinolin-1-ol] |
| 3.1 | CC1(C)CCc2c(Nc3c(Cl)cncc3Cl)nc3c(c(O)nn3Cc3cccc(C(=O)O)c3)c2C1 [Example 7, 3-((5-(3,5-Dichloropyridin-4-ylamino)-1-hydroxy-8,8-dimethyl-6,7,8,9-tetrahydro-3H-pyrazolo[3,4-c]isoquinolin-3-yl)methyl)benzoic acid] |
| 16.8 | CN(C)C(=O)c1cccc(S(=O)(=O)n2nc(O)c3c4c(c(Nc5c(Cl)cncc5Cl)nc32)CCC(C)(C)C4)c1 [Example 3, 3-(5-(3,5-Dichloropyridin-4-ylamino)-1-hydroxy-8,8-dimethyl-6,7,8,9-tetrahydro-3H-pyrazolo[3,4-c]isoquinolin-3-ylsulfonyl)-N, N-dimethylbenzamide] |
| 18.8 | CC1(C)CCc2c(Nc3c(Cl)cncc3Cl)nc3c(c(O)nn3CC(N)=O)c2C1 [Example 9, 2-(5-(3,5-Dichloropyridin-4-ylamino)-1-hydroxy-8,8-dimethyl-6,7,8,9-tetrahydro-3H-pyrazolo[3,4-c]isoquinolin-3-yl)acetamide] |
| 11 | COc1cccc(Cn2nc(O)c3c4c(c(Nc5c(Cl)cncc5Cl)nc32)CCC(C)(C)C4)c1 [Example 4, 5-(3,5-Dichloropyridin-4-ylamino)-3-(3-methoxybenzyl)-8,8-dimethyl-6,7,8,9-tetrahydro-3H-pyrazolo[3,4-c]isoquinolin-1-ol] |
| 2.3 | CC1(C)CCc2c(Nc3c(Cl)cncc3Cl)nc3c(c(O)nn3Cc3cccc(C(N)=O)c3)c2C1 [Example 10, 3-((5-(3,5-Dichloropyridin-4-ylamino)-1-hydroxy-8,8-dimethyl-6,7,8,9-tetrahydro-3H-pyrazolo[3,4-c]isoquinolin-3-yl)methyl)benzamide] |
| 3.9 | CC1(C)CCc2c(Nc3c(Cl)cncc3Cl)nc3[nH]nc(O)c3c2C1 [Example 1, 5-(3,5-Dichloropyridin-4-ylamino)-8,8-dimethyl-6,7,8,9-tetrahydro-3H-pyrazolo[3,4-c]isoquinolin-1-ol] |
| 7.4 | CC1(C)CCc2c(Nc3c(Cl)cncc3Cl)nc3c(c(O)nn3Cc3cccnc3)c2C1 [Example 8, 5-(3,5-Dichloropyridin-4-ylamino)-8,8-dimethyl-3-(pyridin-3-ylmethyl)-6,7,8,9-tetrahydro-3H-pyrazolo[3,4-c]isoquinolin-1-ol] |
| 5.17 | CC1(C)CCc2c(Nc3c(Cl)cncc3Cl)nc3c(c(O)nn3Cc3ccc(C(N)=O)cc3)c2C1 [Example 14, 4-((5-(3,5-Dichloropyridin-4-ylamino)-1-hydroxy-8,8-dimethyl-6,7,8,9-tetrahydro-3H-pyrazolo[3,4-c]isoquinolin-3-yl)methyl)benzamide] |
| 15.5 | CC1(C)CCc2c(Nc3c(Cl)cncc3Cl)nc3c(c(O)nn3CCCc3cccc(C#N)c3)c2C1 [Example 16, 3-(3-(5-(3,5-Dichloropyridin-4-ylamino)-1-hydroxy-8,8-dimethyl-6,7,8,9-tetrahydro-3H-pyrazolo[3,4-c]isoquinolin-3-yl)propyl)benzonitrile] |
| 2.4 | CC1(C)CCc2c(Nc3c(Cl)cncc3Cl)nc3c(c(O)nn3Cc3ccc(C(=O)O)cc3)c2C1 [Example 12, 4-((5-(3,5-Dichloropyridin-4-ylamino)-1-hydroxy-8,8-dimethyl-6,7,8,9-tetrahydro-3H-pyrazolo[3,4-c]isoquinolin-3-yl)methyl)benzoic acid] |
| 62 | CC1(C)CCc2c(Nc3c(Cl)cncc3Cl)nc3[nH]nc(N)c3c2C1 [Example 2, N^5-(3,5-Dichloropyridin-4-yl)-8,8-dimethyl-6,7,8,9-tetrahydro-3H-pyrazolo[3,4-c]isoquinoline-1,5-diamine] |
